From the supplement of paper PMC8671470
± gives the standard deviation of the averaged measurements.

How the values were obtained:
[1] = test system: HL-60; experiment: cell viability (% survival relative to DMSO control); higher = less cytotoxic; details: 72 h
How it was run: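 HL-60 cells in RPMI 1640 with 10% FBS were rescreened against the full library on 384-well plates at five tenfold concentrations, 1–10,000 nM, in duplicate. Each screen was run with DMSO or 100 nM of one of three metabolic inhibitors, for 72 h at 37 °C, 5% CO2. Viability was read by CellTiter-Glo and normalised to DMSO and 10 μM proteasome-inhibitor wells. Where given, area under the curve came from four-parameter log-logistic fits (drc, PharmacoGx).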

[2] = test system: MV4-11; experiment: cell viability (% survival relative to DMSO control, bortezomib = 0%); higher = less cytotoxic; details: 72 h
How it was run: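 Fifteen myeloid leukaemia cell lines (10 AML, 5 CML) were seeded at a density titrated to the linear growth range. They went into 384-well plates with compounds pre-printed at 1, 10, 100, 1000 or 10000 nM in duplicate. After 72 h at 37 °C with 5% CO2, viability was read by CellTiter-Glo luminescence. Values are percent survival, with vehicle set to 100% and a 10 µM positive control to 0%, averaged over the duplicates.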

[3] = 0.001 µM, co-treatment: AZD3965 100 nM
[4] = 0.001 µM, co-treatment: DMSO vehicle
[5] = 0.001 µM, co-treatment: GSK2194069 100 nM
[6] = 0.001 µM, co-treatment: pictilisib 100 nM
[7] = 0.01 µM, co-treatment: AZD3965 100 nM
[8] = 0.01 µM, co-treatment: DMSO vehicle
[9] = 0.01 µM, co-treatment: GSK2194069 100 nM
[10] = 0.01 µM, co-treatment: pictilisib 100 nM
[11] = 0.1 µM, co-treatment: AZD3965 100 nM
[12] = 0.1 µM, co-treatment: DMSO vehicle
[13] = 0.1 µM, co-treatment: GSK2194069 100 nM
[14] = 0.1 µM, co-treatment: pictilisib 100 nM
[15] = 1 µM, co-treatment: AZD3965 100 nM
[16] = 1 µM, co-treatment: DMSO vehicle
[17] = 1 µM, co-treatment: GSK2194069 100 nM
[18] = 1 µM, co-treatment: pictilisib 100 nM
[19] = 10 µM, co-treatment: AZD3965 100 nM
[20] = 10 µM, co-treatment: DMSO vehicle
[21] = 10 µM, co-treatment: GSK2194069 100 nM
[22] = 10 µM, co-treatment: pictilisib 100 nM

SMILES	cell viability [1, 3]	cell viability [1, 4]	cell viability [1, 5]	cell viability [1, 6]	cell viability [1, 7]	cell viability [1, 8]	cell viability [1, 9]	cell viability [1, 10]	cell viability [1, 11]	cell viability [1, 12]	cell viability [1, 13]	cell viability [1, 14]	cell viability [1, 15]	cell viability [1, 16]	cell viability [1, 17]	cell viability [1, 18]	cell viability [1, 19]	cell viability [1, 20]	cell viability [1, 21]	cell viability [1, 22]	cell viability ([2]; 1 nM)	cell viability ([2]; 10 nM)	cell viability ([2]; 100 nM)	cell viability ([2]; 1000 nM)	cell viability ([2]; 10000 nM)
CN(C)C(=O)[C@H](O)[C@H](Cc1ccccc1)NC(=O)c1cc2cc(Cl)ccc2[nH]1	105 ± 5.8%	101 ± 1.7%	102 ± 4.8%	97.4 ± 5.6%	101 ± 3.7%	102.3 ± 0.13%	110 ± 4.8%	107 ± 14%	98.4 ± 2.1%	95.7 ± 11%	101 ± 3.4%	93.8 ± 2.3%	101 ± 5.3%	100 ± 3%	100 ± 4.2%	96 ± 1.2%	100.2 ± 0.61%	110 ± 5.4%	99.4 ± 8.9%	97.3 ± 7%	97.9%	83.8%	98.4%	102%	68.6%
COc1ccc(CNC(=O)Nc2ncc([N+](=O)[O-])s2)cc1	99.1 ± 14%	103 ± 2.9%	89.7 ± 16%	84 ± 31%	97.6 ± 3.6%	94.7 ± 4.3%	81 ± 3.1%	103 ± 5.9%	102 ± 4.4%	99.35 ± 0.68%	106 ± 3.5%	106 ± 3.8%	91.4 ± 3.9%	102 ± 1.5%	86.5 ± 5.7%	96.3 ± 4.1%	95.2 ± 1.6%	107 ± 7.6%	116 ± 7.2%	105 ± 9.1%	101%	99.1%	108%	94.7%	90.6%
O=C(O)C[C@@]1(O)C[C@@H](CCCCCCc2ccc(Cl)cc2Cl)OC1=O	104 ± 2.9%	102 ± 1.9%	108 ± 6.6%	107 ± 3%	104 ± 2.1%	105 ± 3.1%	108 ± 9.2%	109.5 ± 0.28%	100 ± 4.4%	97.05 ± 0.83%	95.77 ± 0.87%	92.03 ± 0.35%	98.7 ± 1.1%	103 ± 1.1%	99.5 ± 4.9%	103 ± 1.8%	95.4 ± 7.3%	99.13 ± 0.47%	93.44 ± 0.53%	99.5 ± 1.9%	95.3%	86.1%	90.5%	102%	98.4%
O=C(NCCCCCCNC(=O)ONC1=CCCCC1)ONC1=CCCCC1	99.5 ± 1.2%	97 ± 1.2%	99.1 ± 7.2%	105 ± 11%	99 ± 1.3%	99.2 ± 2.3%	101 ± 3%	102 ± 1.8%	99.3 ± 1%	96.8 ± 1.2%	70.1 ± 47%	104 ± 4.3%	100.9 ± 0.23%	102 ± 1.3%	87.3 ± 32%	95 ± 25%	98.9 ± 0.37%	97.3 ± 2.2%	105 ± 10%	86.2 ± 13%	91.1%	104%	106%	100%	96.3%
